# Results from patent US20040214803A1, “Use of vitamin d3 analogue for the treatment of autoimmune diabetes” (priority 2001, published 2004).
# What was measured:
# Type in all cases: in vivo, mouse
# [1] = system: pancreatic islets of NOD mice; experiment: Insulitis scoring and immunohistology of pancreas sections
# Protocol: Pancreata were snap-frozen in Tissue Tek (Miles Laboratories, Elkhart, Ind.), and 5-μm-thick sections stained with hematoxilin and eosin. Insulitis score was quantified as follows: 0, no insulitis; 1, peri-insulitis; 2, insulitis in <50% of the islet; 3, insulitis in >50% of the islet. A mean score was calculated from 40-50 islets per individual pancreas. In addition, pancreas cryostat sections were stained with biotinylated mAb directed against CD4, CD8, B220, CD11b (all purchased from PharMingen), or CD11c (N418; American Type Culture Collection, Manassas, Va.), followed by streptavidin-peroxidase conjugate. […]
# NOD female mice were treated daily with Compound A (0.03 μg/Kg body weight per os) or vehicle from 8 to 12 or 16 weeks of age and glycemia levels were monitored until 38 weeks of age. […]
# FIG. 2. […] The results refer to the mean values ±SE of 8 mice/group, except for 1,25-dihydroxy-16,23Z-diene-26,27-hexafluoro-19-nor vitamin D3-treated mice where three mice were scored. The P values were calculated by Mann-Whitney U test. The severity of the infiltrate is shown in the right panel Islets from the same mice were scored for absence of insulitis (□, peri-insulitis (□), moderate insulitis with <50% infiltration of the islets ( ? ) , and severe insulitis, with >50% of infiltration of the islets (▪). […]
# aortic allografts [2] = experiment: Aortic allograft chronic rejection: intimal thickening / luminal reduction; conditions: 0.03 μg/kg p.o. five times per week day 0 to day 30; grafts analysed 60 days after transplantation; vehicle >60%
# Protocol: Mice: BALB/c and C57BL/6 (B6) male mice, weighing 22-24 g, were purchased from Charles River Laboratories (Calco, Italy), and kept under specific pathogen-free conditions. B6 (H-2^b) mice were used as donors and BALB/c (H-2^d) as recipients of aortic allografts.
# Aorta transplantation: The entire procedure was performed according to Koulack et al. Development of a mouse aortic transplant model of chronic rejection Microsurgery 1995; 16: 110-3, with the modification described by Hong et al. Improved surgical technique for the establishment of a murine model of aortic transplantation. Microsurgery 1998; 18: 368-71. […]
# Determination of luminal reduction: Luminal reduction was assessed in 5 μm-thick frozen transverse aortic sections stained with hematoxylin and eosin obtained 60 days post transplantation. To quantify morphological changes in the graft, we used a Leica DC camera (Leica IM 1000 image manager) to acquire the image, and the Leica Qwin software to calculate the luminal reduction percentage. […]
# Statistical analysis: Numerical data are expressed as mean ±SD. Data on percent luminal reduction were analysed by a non parametric Students's t-test.
# The effect of Compound A in preventing chronic rejection was evaluated using the aortic graft model in the mouse. […] Aortic grafts were analyzed 60 days after transplantation.
# aortic allografts [3] = experiment: Aortic allograft histology: inflammatory cell infiltrate; conditions: 0.03 μg/kg p.o., 60 days after transplantation
# Protocol: Histology: Segments of aorta grafts were snap-frozen in Tissue Tek (Miles Laboratories, Elkhart, Ind.), and stored at −80° C. Frozen sections, 5 μm thick, were stained with hematoxylin and eosin, or with biotinylated mAbs against CD4, CD8, B220, CD11b or CD11c (all purchased from PharMingen, San Diego, Calif.), followed by streptavidin-peroxidase conjugate. 3-amino-9-ethylcarbazole (DAKO, Carpenteria, Calif.) was used as chromogen, and hematoxylin as a counterstain. The effect of Compound A in preventing chronic rejection was evaluated using the aortic graft model in the mouse. Graft combinations were syngeneic or allogeneic. In allogeneic combinations, recipient mice were treated orally with vehicle alone or containing Compound A (0.03 μg/kg) fives times per week, from day 0 to day 30 relative to the time of grafting. Aortic grafts were analyzed 60 days after transplantation.
smiles,measurement,setting,value
"C[C@H](C/C=C\C(O)(C(F)(F)F)C(F)(F)F)C1=CC[C@H]2/C(=C/C=C3C[C@@H](O)C[C@H](O)C3)CCC[C@]12C [Compound A, 1,25-dihydroxy-16,23Z-diene-26,27-hexafluoro-19-nor vitamin D3]",functional islet β cells (positive staining for insulin),"[1]; at 30 weeks of age, compared to vehicle-treated NOD mice at 30 weeks",more frequent
same,score and severity of insulitis,"[1]; treated 8 to 16 weeks, analysed at 30 weeks of age, compared to 8 weeks old NOD mice",similar
same,intimal thickening,aortic allografts [2],< 20%
same,"CD4, CD8 and B cells in the grafts",aortic allografts [3],complete absence
same,number of macrophages and dendritic cells in the grafts,aortic allografts [3]; vs vehicle,profoundly reduced number
